Data as given in ChEMBL document CHEMBL3885861, “Open TG-GATES”.

Species on record: Rattus norvegicus
Test: Open TG-GATES - Regimen: Daily Repeat
Assay type: toxicity, organism-based, Sprague-Dawley
Set-up: regimen Daily Repeat, gender Male, age 6 weeks
Conditions: in vivo, po, route gavage; for Bas / Eos / Fbg / Hb / Ht / Lym / MCH / MCHC / MCV / Mono / Neu / PT / Plat / RBC / Ret / WBC / APTT: tissue Blood; for KIDNEY_L / KIDNEY_R / KIDNEY_TOTAL: tissue Kidney; for LIVER: tissue Liver; for ALP / AST / BUN / CRE / Ca / Cl / DBIL / GLC / IP / LDH / Na / PL / RALB / TBIL / TC / TG / TP / gamma-GTP: tissue Plasma
[1] = 30 mg/kg, 72 h, dose level Middle, time 3 day
[2] = 30 mg/kg, […], dose level Middle, time 7 day
[3] = 30 mg/kg, […], dose level Middle, time 14 day
[4] = 30 mg/kg, […], dose level Middle, time 28 day
[5] = 100 mg/kg, 72 h, dose level High, time 3 day

Work on `CC(=O)N1CCN(c2ccc(OCC3COC(Cn4ccnc4)(c4ccc(Cl)cc4Cl)O3)cc2)CC1` (stereo unspecified) [KETOCONAZOLE] yielded a Bas [1] of 0%, an Eos [1] of 1% and a Fbg [1] of 303.8 mg/dL. The Hb [1] was 13.4 g/dL, the Ht [1] was 39.7% and the Lym [1] was 77.4%. For the same molecule, the MCH [1] was 21.4 pg, the MCHC [1] was 33.8% and the MCV [1] was 63.3 fL. The Mono [1] was 2.4%, the Neu [1] was 18.2% and the PT [1] was 16.3 s. The Plat [1] was 117.1 x10_4/uL, the RBC [1] was 627.6 x10_4/ul and the Ret [1] was 5.6%. The WBC [1] was 101.1 x10_2/uL, the KIDNEY_L [1] was 1 g and the KIDNEY_R [1] was 1.1 g. It also gave a KIDNEY_TOTAL [1] of 2.1 g, an LIVER [1] of 10.5 g and an ALP [1] of 1639 IU/L. It also gave an AST [1] of 67.4 IU/L, a BUN [1] of 17.8 mg/dL and a CRE [1] of 0.1 mg/dL. The Ca [1] was 10.8 mg/dL, the Cl [1] was 106.4 meq/L and the DBIL [1] was 0 mg/dL. For the same molecule, the GLC [1] was 181.8 mg/dL, the IP [1] was 6.7 mg/dL and the LDH [1] was 236.6 IU/L. For the same molecule, the Na [1] was 139.8 meq/L, the PL [1] was 141.8 mg/dL and the RALB [1] was 3.1 g/dL. It also gave a TBIL [1] of 0.01 mg/dL, a TC [1] of 71 mg/dL and a TG [1] of 88.6 mg/dL. For the same molecule, the TP [1] was 5.7 g/dL, the gamma-GTP [1] was 1.2 IU/L and the TERMINAL_BW [2] was 265.9 g. For the same molecule, the TERMINAL_BW [3] was 312.9 g, the TERMINAL_BW [4] was 360.4 g and the APTT [2] was 21.8 s. It also gave a Bas [2] of 0%, an Eos [2] of 1% and a Fbg [2] of 321.6 mg/dL. It also gave a Hb [2] of 13.5 g/dL, a Ht [2] of 39.7% and a Lym [2] of 75.8%. The MCH [2] was 21.2 pg, the MCHC [2] was 34% and the MCV [2] was 62.4 fL. For the same molecule, the Mono [2] was 2.4%, the PT [2] was 16 s and the Plat [2] was 121.4 x10_4/uL. It also gave an RBC [2] of 636.6 x10_4/ul, a Ret [2] of 5.4% and a WBC [2] of 103.7 x10_2/uL. For the same molecule, the APTT [3] was 21.1 s, the Bas [3] was 0% and the Eos [3] was 0.8%. For the same molecule, the Fbg [3] was 291.8 mg/dL, the Hb [3] was 13.4 g/dL and the Ht [3] was 39.6%. It also gave a Lym [3] of 76%, an MCH [3] of 20.5 pg and an MCHC [3] of 33.8%. For the same molecule, the MCV [3] was 60.7 fL, the Mono [3] was 2.4% and the Neu [3] was 19.2%. For the same molecule, the PT [3] was 16.2 s, the Plat [3] was 126.1 x10_4/uL and the RBC [3] was 652.8 x10_4/ul. The Ret [3] was 4.9%, the WBC [3] was 115.1 x10_2/uL and the APTT [4] was 25 s. It also gave a Bas [4] of 0%, an Eos [4] of 1% and a Fbg [4] of 286.6 mg/dL. The Hb [4] was 15.2 g/dL, the Ht [4] was 43.9% and the Lym [4] was 76.8%. The MCH [4] was 19.6 pg, the MCHC [4] was 34.5% and the MCV [4] was 56.9 fL. For the same molecule, the Mono [4] was 1.6%, the PT [4] was 16.9 s and the Plat [4] was 105.3 x10_4/uL. The RBC [4] was 773.4 x10_4/ul, the Ret [4] was 2.6% and the WBC [4] was 102.4 x10_2/uL. For the same molecule, the KIDNEY_L [2] was 1.2 g, the KIDNEY_R [2] was 1.2 g and the KIDNEY_TOTAL [2] was 2.3 g. It also gave a KIDNEY_L [3] of 1.3 g, a KIDNEY_R [3] of 1.3 g and a KIDNEY_TOTAL [3] of 2.6 g. The KIDNEY_L [4] was 1.3 g, the KIDNEY_R [4] was 1.4 g and the KIDNEY_TOTAL [4] was 2.7 g. For the same molecule, the LIVER [2] was 12.2 g, the LIVER [3] was 14.4 g and the LIVER [4] was 15.1 g. It also gave an ALP [2] of 1565.4 IU/L, an AST [2] of 70.4 IU/L and a BUN [2] of 18.2 mg/dL. It also gave a CRE [2] of 0.1 mg/dL, a Ca [2] of 10.6 mg/dL and a Cl [2] of 108.2 meq/L. For the same molecule, the DBIL [2] was 0 mg/dL, the GLC [2] was 176.4 mg/dL and the IP [2] was 6.9 mg/dL. It also gave an LDH [2] of 171.8 IU/L, a Na [2] of 142 meq/L and a PL [2] of 145 mg/dL. It also gave an RALB [2] of 3 g/dL, a TBIL [2] of 0.004 mg/dL and a TC [2] of 70.4 mg/dL. For the same molecule, the TG [2] was 135.4 mg/dL, the TP [2] was 5.7 g/dL and the gamma-GTP [2] was 1.6 IU/L. It also gave an ALP [3] of 1247.8 IU/L, an AST [3] of 65.4 IU/L and a BUN [3] of 18.2 mg/dL. The CRE [3] was 0.1 mg/dL, the Ca [3] was 10.4 mg/dL and the Cl [3] was 106.8 meq/L. For the same molecule, the DBIL [3] was 0 mg/dL, the GLC [3] was 180.8 mg/dL and the IP [3] was 6.6 mg/dL. For the same molecule, the LDH [3] was 194.8 IU/L, the Na [3] was 142.2 meq/L and the PL [3] was 140 mg/dL. It also gave an RALB [3] of 3 g/dL, a TBIL [3] of 0.004 mg/dL and a TC [3] of 68.6 mg/dL. It also gave a TG [3] of 134 mg/dL, a TP [3] of 5.8 g/dL and a gamma-GTP [3] of 1 IU/L. The ALP [4] was 1104.2 IU/L, the AST [4] was 66.8 IU/L and the BUN [4] was 18.4 mg/dL. The CRE [4] was 0.2 mg/dL, the Ca [4] was 10.4 mg/dL and the DBIL [4] was 0 mg/dL. It also gave a GLC [4] of 179 mg/dL, an IP [4] of 4.9 mg/dL and an LDH [4] of 155.2 IU/L. The Na [4] was 142.4 meq/L, the PL [4] was 126 mg/dL and the RALB [4] was 3.1 g/dL. For the same molecule, the TBIL [4] was 0.008 mg/dL, the TC [4] was 61.6 mg/dL and the TP [4] was 6.1 g/dL. It also gave a gamma-GTP [4] of 1.2 IU/L, a TERMINAL_BW [5] of 230.7 g and an APTT [5] of 20.5 s.
